Test results reported in patent US10711247B2, “Method for reducing pluripotent stem cells, method for producing cell population having reduced pluripotent stem cells” (TOKYO WOMEN'S MEDICAL UNIVERSITY, priority 2015, dated 2020).
Where two headings read alike, the source gives them in different places.

How the values were obtained:
feeder-less iPS cells [1] = system: feeder-less iPS cells
Description: (§1) FIGS. 8A and 8B indicate the results of culturing iPS cells cultured on laminin E8 fragments following the addition of capsaicin. Vehicle-1 represents the control used in the experiment in which capsaicin was added at 2×10^−4 M, Vehicle-2 represents the control used in the experiment in which capsaicin was added at 1×10^−4 M, and Vehicle-3 represents the control used in the experiment in which capsaicin was added at 1×10^−5 M. The upper panels in FIG. 8A indicates phase-contrast images and the bars represent 100 μm. The middle panels indicate Hoechst staining images and the bars represent 200 μm. The lower panels indicate montage images of 36 fields (6×6) of the Hoechst staining images. FIG. 8B is a graph indicating the numbers of cells in 36 fields under each condition.
(§2) Human iPS cell lines 253G1 and 2017 were purchased from RIKEN (Ibaraki, Japan). Transfer of human iPS cell line 1231A3 was received from Kyoto University.

feeder-less iPS cells [2] = assay: feeder-less iPS cells cultured with TRPV-1 agonists, number of cells in 36 fields (Hoechst staining); details: feeder-less iPS cells on laminin E8 fragments
Description: as §1, §2

[3] = system: iPS cell-derived cardiomyocytes; assay: iPS cell-derived cardiomyocytes cultured in medium containing capsaicin; format: cell-based, human
Description: Prior to seeding the cells, the surface of a temperature-responsive culture dish (Upcell®, CellSeed Inc., Tokyo, Japan) or cell culture dish (Corning, Inc., Corning, N.Y., USA) was coated with fetal bovine serum (FBS) for 2 hours. After the iPS cells were induced to differentiate into cardiomyocytes, the cells were detached using 0.05% trypsin/EDTA and the cell aggregates were broken up into single cells using a strainer (BD Biosciences, Inc., San Jose, Calif., USA), followed by seeding in a culture dish at 2.1×10^5 cells/cm^2 using DMEM medium (Sigma-Aldrich Corp., St. Louis, Mo., USA) containing 10% FBS and culturing in a humidified atmosphere at 37° C. and 5% CO2. In several of the experiments, the cells were treated with puromycin (Sigma-Aldrich Corp., 1.5 μg/mL) for 1 day to purify the iPS cell-derived cardiomyocytes (strain 201B7, αMHC-puro/Rex1-neo).

Q: For `CCCCCCCC/C=C\CCCCCCCC(=O)NCCc1ccc(O)c(O)c1` [OLDA, N-oleoyldopamine], which “cytotoxic activity against iPS cells” value (feeder-less iPS cells [1]) is on record?
A: demonstrated cytotoxic activity against iPS cells

Q: `CCCCC/C=C\C/C=C\C/C=C\C/C=C\CCCC(=O)NCc1ccc(O)c(OC)c1` [arvanil] was tested. Which “cytotoxic activity against iPS cells” value (feeder-less iPS cells [2]; FIGS. 9 and 10) did it give?
A: demonstrated cytotoxic activity against iPS cells

Q: How did the “independent pulsation of the cardiomyocytes” value ([3]; capsaicin 200 μM and 100 μM (concentrations toxic to iPS cells)) turn out when `COc1cc(CNC(=O)CCCC/C=C/C(C)C)ccc1O` [capsaicin] was run?
A: maintained

Q: And the “numbers of Nkx2.5-positive cells” value ([3]; capsaicin 200 μM and 100 μM, compared with vehicle (FIGS. 8C and 8D))?
A: no changes

Q: What about the number of cells (feeder-less iPS cells [2]; capsaicin 2×10^−4 M, 1×10^−4 M, 1×10^−5 M vs vehicle (FIGS. 8A and 8B)) of the same molecule?
A: significantly decreased concentration-dependently
